What was measured:
[1] = test system: Caco-2 cells; experiment: Integrity of irradiated single Caco-2 cell layer: electric resistance, FD4 permeability (Example 23); type: cell-based; conditions: 20 Gy, 24 h later
Method: Caco-2 cells were cultured in a mixture of 78% MEM+20% FBS+1% P/S+1% NEAA and seeded in a 24-well chamber at a density of 10,000 cells/well, with the culture medium refreshed once every 2 days until day 11. The cells were then pretreated with DMSO or 1, 3, or 10 μM R-JAC4 for 3 days. The single cell layer model was constructed during the 14 days. The model was then irradiated at a dose of 0 Gy or 20 Gy at a dose rate of 2.5 Gy/min, and the electric resistance of the single cell layer and the permeability of FD4 were measured 24 h later.

[2] = Pharmacokinetics of R-JAC4 and S-JAC4 in mice (Example 17); type: in vivo; conditions: for F / clearance (CL) / AUC(0-t) / Cmax / Tmax / half-life / C0 / Vd: female BALB/c mice; for F: intragastric 10 mg/kg vs intravenous 3 mg/kg; for clearance (CL) / AUC(0-t) / Cmax / Tmax / half-life / C0 / Vd: mean, n = 3; for AUC(0-t) / Cmax / Tmax / half-life / C0 / Vd: mouse, plasma; for Vd: read-out: Vss
[3] = test system: C57/BL6 mice; experiment: R-JAC4 in radiation enteritis mouse model: plasma FD4, small intestine length (Example 18); type: in vivo; conditions: R-JAC4 10 mg/kg and 3 mg/kg intragastric, ABI 12 Gy
Method: The formulation of the vehicle for R-JAC4 was polyethylene glycol:ethanol:physiological saline=40:7.5:52.5, v/v/v. The vehicle group and the treatment groups were given the vehicle or treatment at the same volume by the same route.
The vehicle was administered to the vehicle control group intragastrically, and R-JAC4 10 mg/kg and R-JAC4 3 mg/kg interventions were given to the R-JAC4 treatment groups intragastrically. The treatment started 7 days before the X-ray radiation and was administrated once daily until the day before the end of study, for a total of […].
X-ray radiation: The mice were anesthetized intraperitoneally and exposed to ABI using an X-ray irradiator (12 Gy, 1.25 Gy/min). The irradiated region was a 3 cm region above the iliac joint below the chest, so as to induce gastrointestinal radiation syndrome.
Permeability detection in the small intestine: On day 4 post-radiation, FITC-dextran 4 kDa, abbreviated as FD4, was given to the mice intragastrically at a dose of 0.6 mg/g body weight. Peripheral blood was collected in an anticoagulation tube after 4 h, and the plasma was collected by centrifugation. The samples were added to a 96-well plate at 100 μL, and the fluorescence intensity was measured (excitation wavelength: 485 nm, emission wavelength: 535 nm). The FD4 concentrations of the samples were calculated by regression according to a standard curve. […]

[4] = test system: JWA^IEC KO mice; experiment: R-JAC4 in radiation enteritis model, JWA^IEC KO mice (Example 19); type: in vivo
Method: (§1) Intestinal epithelial cell JWA-knockout mice (JWA^IEC KO) and their wild type littermates (JWA^IEC WT) were subjected to radiation enteritis modeling in the same manner as in Example 17 and were given R-JAC4 10 mg/kg treatment. In addition to the detection of FD4 concentration, the plasma was collected from the mice at the end of study to detect the plasma proinflammatory cytokine level by ELISA and the activity of antioxidant-related enzymes by biochemical tests.

[5] = test system: JWA^IEC WT mice; experiment: R-JAC4 in radiation enteritis model, JWA^IEC WT mice (Example 19); type: in vivo; conditions: R-JAC4 10 mg/kg
Method: as §1

[6] = 1 μM R-JAC4 3 days pretreatment
[7] = 3 μM R-JAC4 3 days pretreatment
[8] = single intravenous dose 3 mg/kg
[9] = po, single intragastric dose 10 mg/kg
[10] = R-JAC4, JWA^IEC KO mice vs vehicle control

Q: Which “electric resistance of the single Caco-2 cell layer” value (“electric resistance” below) [1, 6] does the source give for `c1ccc(CSc2nnc([C@H]3COc4ccccc4O3)o2)nc1` [R-JAC4] here?
A: 1016±64.65 Ω·cm^2

Q: And the “permeability of FD4 through the single cell layer” value [1, 6]?
A: 410.60 ± 50.99 ng/mL

Q: What about the “electric resistance” value [1, 7] of the same compound?
A: 1138±25.97 Ω·cm^2

Q: What about the “permeability of FD4 through the single cell layer” value [1, 7] of the same compound?
A: 345.40 ± 29.85 ng/mL

Q: And the “electric resistance” value ([1]; 10 μM R-JAC4 3 days pretreatment)?
A: 1109±101.20 Ω·cm^2

Q: What about the “oral bioavailability, comparison of isomers” value ([2]; BALB/c mice, calculated by F=(AUC-po/Dose-po)/(AUC-iv/Dose-iv)) of the same compound?
A: higher than that of S-JAC4

Q: What about the F [2] of the same compound?
A: 3.94%

Q: What about the “clearance (CL)” value [2, 8] of the same compound?
A: 140 mL/min/kg

Q: What about the AUC(0-t) [2, 9] of the same compound?
A: 49.5 ng·h/mL

Q: What about the Cmax [2, 9] of the same compound?
A: 176 ng/mL

Q: And the Tmax [2, 9]?
A: 4.98 min

Q: What about the half-life [2, 9] of the same compound?
A: 22.7 min

Q: What about the AUC(0-t) [2, 8] of the same compound?
A: 374 ng·h/mL

Q: And the C0 [2, 8]?
A: 1680 ng/mL

Q: What about the half-life [2, 8] of the same compound?
A: 36 min

Q: What about the Vd [2, 8] of the same compound?
A: 3.64 L/kg

Q: What about the “shortening extent of the small intestine” value [3] of the same compound?
A: effective in reducing the shortening extent of the small intestine in a dose-dependent manner

Q: What about the “concentration of fluorescein FD4 in the plasma” value ([3]; day 4 post-radiation) of the same compound?
A: dose-dependent down-regulation effect

Q: What about the “plasma FD4 level” value ([4]; R-JAC4 10 mg/kg, JWA^IEC KO mice vs vehicle control) of the same compound?
A: no significant change

Q: What about the “activity of plasma glutathione peroxidase and catalase” value [4, 10] of the same compound?
A: no significant changes

Q: What about the “plasma levels of proinflammatory cytokines TNF-α and IL-1β” value [4, 10] of the same compound?
A: no significant changes

Q: What about the “activity of plasma glutathione peroxidase and catalase” value [5] of the same compound?
A: significantly increased

Q: What about the “plasma FD4 level” value [5] of the same compound?
A: significantly downregulated

Q: And the “plasma levels of proinflammatory cytokines TNF-α and IL-1β” value [5]?
A: significantly reduced

Q: For `c1ccc(CSc2nnc([C@@H]3COc4ccccc4O3)o2)nc1` [S-JAC4], which F [2] is on record?
A: 1.32%

Q: And the “clearance (CL)” value [2, 8]?
A: 121 mL/min/kg

Q: And the AUC(0-t) [2, 9]?
A: 17.2 ng·h/mL

Q: And the Cmax [2, 9]?
A: 48.7 ng/mL

Q: What about the Tmax [2, 9] of the same compound?
A: 4.98 min

Q: And the half-life [2, 9]?
A: 27.1 min

Q: What about the AUC(0-t) [2, 8] of the same compound?
A: 410 ng·h/mL

Q: And the C0 [2, 8]?
A: 1650 ng/mL

Q: And the half-life [2, 8]?
A: 116 min

Q: What about the Vd [2, 8] of the same compound?
A: 7.72 L/kg
